# Test system: HCT 116 cell lines
# Test: Cell cycle analysis (PI, FACS)
# Assay type: cell-based, Human
# Conditions: 24 h
# Protocol: The cell cycle analysis was followed where 1 × 10^6 cells were seeded and cultured for 24 h in a 6-well plate containing 2 ml of the media. Cells were then treated with desired concentrations of the given samples that were prepared in media and further incubated for another 24 h. Cells were then harvested and centrifuged at 2000 rpm for 5 min at room temperature and the supernatant was discarded carefully retaining the cell pellet. Cell pellet was then washed by resuspending in 2 ml of 1XPBS. The washing was repeated another time under the same conditions. Further, the supernatant was discarded retaining the pellet. Cells were then fixed by resuspending in 300 µL of Sheath fluid followed by the addition of 1 ml of chilled 70% ethanol drop by drop gently with continuous shaking and one more mL of the same at once. The cells were then stored at 4 °C overnight. Post fixing, the cells were centrifuged at 2000 rpm for 5 min washed twice with 2 ml of cold 1XPBS and suspended in 450 µL of sheath fluid containing 0.05 mg/ml PI (Propidium iodide), 0.05 mg/ml RNase A and incubated for 15 min in the dark (Kasibhatla et al. [2006]).The percentage of cells in various stages of cell cycle both in the treated as well as un-treated populations was determined using FACS Caliber (BD Biosciences, San Jose, CA).
compound,measurement,setting,value
COc1ccc(/C=C2\Oc3c(c(OC)cc(OC)c3C3=CCN(C(C)C)CC3)C2=O)cc1OC [NISOA4],percentage cell population GO/G1 phase,high concentration (25),57.97%
same,percentage cell population G2/M phase,low concentration (12.5),17.30%
same,percentage cell population GO/G1 phase,low concentration (12.5),70.84%
same,percentage cell population S phase,low concentration (12.5),10.61%
